{"source": "paper PMC4950319", "about": "“Kinetic and structural characterization of amyloid‐β peptide hydrolysis by human angiotensin‐1‐converting enzyme” (The Febs Journal, 2016)", "key": {"[1]": {"system": "CC‐sACE", "sequence (P12821 643-1222 limits assumed)": "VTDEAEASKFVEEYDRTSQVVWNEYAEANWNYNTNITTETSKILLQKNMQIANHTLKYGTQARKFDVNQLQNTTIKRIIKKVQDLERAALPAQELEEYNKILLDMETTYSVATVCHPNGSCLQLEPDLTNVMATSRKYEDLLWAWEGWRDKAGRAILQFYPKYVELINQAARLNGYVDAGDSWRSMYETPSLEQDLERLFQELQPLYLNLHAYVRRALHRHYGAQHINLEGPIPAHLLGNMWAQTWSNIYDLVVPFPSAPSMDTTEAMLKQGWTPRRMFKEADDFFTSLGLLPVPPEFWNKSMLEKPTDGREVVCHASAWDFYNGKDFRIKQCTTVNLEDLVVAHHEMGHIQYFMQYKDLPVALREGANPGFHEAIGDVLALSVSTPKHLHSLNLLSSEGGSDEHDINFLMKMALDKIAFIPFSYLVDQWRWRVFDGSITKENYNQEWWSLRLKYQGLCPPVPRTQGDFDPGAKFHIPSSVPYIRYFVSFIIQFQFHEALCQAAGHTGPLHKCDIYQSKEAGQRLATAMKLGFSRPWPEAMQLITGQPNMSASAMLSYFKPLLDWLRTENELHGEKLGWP", "assay": "Interdomain cooperativity of two C‐domains", "type": "biochemical, human", "conditions": "catalytic ability per active site versus individual domains", "method": "(§1) An alternative fluorogenic peptide, Abz‐FRHDSG‐(NT) (BIOPEP™ South Africa) was assayed, with 100 μL enzyme and 100 μL substrate (at a final enzyme concentration within 10% hydrolysis of total substrate; see Table 3) as above, in 96‐well plates. The samples were read at the 5 min time point on a Cary Eclipse spectrofluorimeter (Varian Inc.) at λex = 320 nm and λem = 420 nm. Kinetic constants, inner filter effect and standard curves were calculated as above."}, "[2]": {"biological_target": "T1, C‐sACE (Homo sapiens, UniProt P12821, H390K/H394K)", "T1 construct": "Both constructs have the complete signal, transmembrane and stalk region corresponding to full‐length sACE; made in house; host or cells: CHO cells; purified from cell lysate", "T1 sequence (P12821 30-1306 H390K/H394K)": "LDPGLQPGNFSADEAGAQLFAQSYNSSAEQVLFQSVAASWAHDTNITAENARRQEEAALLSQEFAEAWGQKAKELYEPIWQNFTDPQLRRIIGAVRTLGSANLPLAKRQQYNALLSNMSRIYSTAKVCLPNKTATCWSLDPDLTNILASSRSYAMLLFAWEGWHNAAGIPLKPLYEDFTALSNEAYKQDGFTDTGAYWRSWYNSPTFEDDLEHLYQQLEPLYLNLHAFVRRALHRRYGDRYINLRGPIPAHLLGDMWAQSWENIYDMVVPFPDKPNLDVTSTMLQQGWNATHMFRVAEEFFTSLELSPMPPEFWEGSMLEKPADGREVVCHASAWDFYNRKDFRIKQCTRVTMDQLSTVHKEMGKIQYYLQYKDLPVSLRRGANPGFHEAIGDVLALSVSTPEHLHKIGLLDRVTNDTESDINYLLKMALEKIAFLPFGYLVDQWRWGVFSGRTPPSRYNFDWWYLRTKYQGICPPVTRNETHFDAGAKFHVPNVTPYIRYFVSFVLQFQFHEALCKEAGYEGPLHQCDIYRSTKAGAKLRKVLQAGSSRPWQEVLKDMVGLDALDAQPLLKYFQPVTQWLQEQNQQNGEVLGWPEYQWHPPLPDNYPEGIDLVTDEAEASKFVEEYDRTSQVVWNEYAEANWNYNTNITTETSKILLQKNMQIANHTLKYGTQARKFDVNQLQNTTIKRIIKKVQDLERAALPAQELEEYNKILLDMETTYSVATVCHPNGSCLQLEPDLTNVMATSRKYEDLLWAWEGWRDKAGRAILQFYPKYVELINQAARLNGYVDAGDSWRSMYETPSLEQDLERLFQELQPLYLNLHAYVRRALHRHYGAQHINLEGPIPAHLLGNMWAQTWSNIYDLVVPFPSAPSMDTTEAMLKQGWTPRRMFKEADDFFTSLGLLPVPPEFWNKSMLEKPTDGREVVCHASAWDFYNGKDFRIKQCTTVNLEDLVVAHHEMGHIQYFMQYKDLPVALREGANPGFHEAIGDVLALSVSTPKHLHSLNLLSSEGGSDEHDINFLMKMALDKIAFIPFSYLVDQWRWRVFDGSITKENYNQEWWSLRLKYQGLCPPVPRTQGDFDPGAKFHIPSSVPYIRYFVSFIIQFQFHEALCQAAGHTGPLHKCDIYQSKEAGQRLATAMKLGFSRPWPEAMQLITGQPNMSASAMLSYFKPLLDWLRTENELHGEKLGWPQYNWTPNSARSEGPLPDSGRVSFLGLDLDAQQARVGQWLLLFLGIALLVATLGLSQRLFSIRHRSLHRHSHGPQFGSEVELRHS", "assay": "Aβ(4–10)Y hydrolysis by C‐sACE, fluorogenic assay", "type": "biochemical", "description": "(§2) Fluorogenic substrates designed around the established N‐terminal Asp7‐Ser8 cleavage site of the full‐length Aβ(1–42) were used to develop a higher throughput assay. There are two variations of the short fluorogenic peptides: Aβ(4–10)Q (Abz‐FRHDSG(Q)‐EDDnp) which has an N‐terminal Abz donor and a C‐terminal EDDnp quencher group attached to an additional Gln residue. The second peptide, Aβ(4–10)Y (Abz‐FRHDSG‐(NT)) has a different quencher molecule, NT, which substitutes for the naturally occurring Tyr residue.\nas §1\n(§3) Statistical analysis of the data was determined by Student's t test. Differences with P < 0.05 were considered statistically significant. Fractional error was calculated for the k cat/K m ratio with the following equation: ΔZ=ZΔa/a^2+Δb/b^2 where Z represents the mean k cat/K m and ΔZ represents the fractional error. The Δa represents the SEM of the mean k cat (a). Similarly, Δb represents the SEM of the mean K m (b)."}, "[3]": {"system": "CC‐sACE", "assay": "Aβ(4–10)Y hydrolysis by CC‐sACE, fluorogenic assay", "type": "biochemical, human", "conditions": "fluorescence λex 320 nm, λem 420 nm, Hepes pH 7.5 buffer as for Aβ(4–10)Q, 5 min time point, enzyme 0.071 pmol, n = 3", "description": "as §2, §1, §3"}, "[4]": {"biological_target": "T2, N‐sACE (Homo sapiens, UniProt P12821, H988K/H992K)", "T2 construct": "Both constructs have the complete signal, transmembrane and stalk region corresponding to full‐length sACE; made in house; host or cells: CHO cells; purified from cell lysate", "T2 sequence (P12821 30-1306 H988K/H992K)": "as the sequence (P12821 30-1306 H390K/H394K) above, with K361H, K365H, H959K, H963K counted along it", "assay": "Aβ(4–10)Y hydrolysis by N‐sACE, fluorogenic assay", "type": "biochemical", "conditions": "fluorescence λex 320 nm, λem 420 nm, Hepes pH 7.5 buffer as for Aβ(4–10)Q, 5 min time point, enzyme 0.113 pmol, n = 3", "description": "as §2, §1, §3"}, "[5]": {"biological_target": "T3, Cdom (soluble form of the C‐domain of sACE) (Homo sapiens, UniProt P12821)", "T3 construct": "lacks the transmembrane region and unique 36 amino acid N terminus (and is therefore identical to the sACE C‐domain); made in house; host or cells: CHO cells", "T3 sequence (P12821 643-1222 limits assumed)": "as the sequence (P12821 643-1222 limits assumed) above", "assay": "Aβ(4–10)Y hydrolysis by Cdom, fluorogenic assay", "type": "biochemical", "conditions": "fluorescence λex 320 nm, λem 420 nm, Hepes pH 7.5 buffer as for Aβ(4–10)Q, 5 min time point, enzyme 0.835 pmol, n = 3", "description": "as §2, §1, §3"}, "[6]": {"biological_target": "T4, Ndom (soluble form of the N‐domain of sACE) (Homo sapiens, UniProt P12821)", "T4 construct": "made in house; host or cells: CHO cells", "T4 sequence (P12821 30-658)": "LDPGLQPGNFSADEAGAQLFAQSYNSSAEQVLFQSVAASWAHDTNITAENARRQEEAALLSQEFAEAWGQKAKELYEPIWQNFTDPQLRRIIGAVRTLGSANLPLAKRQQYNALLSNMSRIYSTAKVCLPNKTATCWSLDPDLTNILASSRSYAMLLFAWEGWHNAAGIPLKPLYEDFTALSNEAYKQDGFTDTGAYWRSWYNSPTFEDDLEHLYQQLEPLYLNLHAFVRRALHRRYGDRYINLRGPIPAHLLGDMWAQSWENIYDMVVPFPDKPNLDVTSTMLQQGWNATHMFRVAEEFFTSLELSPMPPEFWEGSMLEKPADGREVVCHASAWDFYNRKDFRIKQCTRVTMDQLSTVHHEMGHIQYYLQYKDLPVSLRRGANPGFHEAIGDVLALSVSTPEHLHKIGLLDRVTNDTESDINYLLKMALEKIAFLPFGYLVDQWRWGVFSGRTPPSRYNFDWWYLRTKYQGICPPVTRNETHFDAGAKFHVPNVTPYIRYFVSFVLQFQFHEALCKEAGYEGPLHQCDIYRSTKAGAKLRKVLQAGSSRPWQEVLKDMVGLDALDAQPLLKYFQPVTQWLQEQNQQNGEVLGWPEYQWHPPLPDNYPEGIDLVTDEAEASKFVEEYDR", "assay": "Aβ(4–10)Y hydrolysis by Ndom, fluorogenic assay", "type": "biochemical", "description": "as §2, §1, §3"}, "[7]": {"biological_target": "T5, sACE (Homo sapiens, UniProt P12821)", "T5 construct": "made in house; host or cells: CHO cells; purified from cell lysate", "T5 sequence (P12821 30-1306)": "as the sequence (P12821 30-1306 H390K/H394K) above, with K361H, K365H counted along it", "assay": "Interdomain cooperativity in hydrolysis of Aβ substrates", "type": "biochemical", "method": "Mixtures were separated on a Poroshell 120 EC‐18 column with a 2.7 μm pore size. The reaction consists of 25 μL substrate incubated with 25 μL enzyme for 15 min at 37 °C and was stopped with the addition of 10 μL of 0.25% trifluoroacetic acid (TFA). The total reaction (60 μL) was cleared of contaminants on a spin column (GHP Nanosep® MF Centrifugal Device 0.45 μm pore size) and run on the HPLC. Kinetic parameters were determined through the fitting of initial rates to the Michaelis–Menten equation with […] PRISM software (v 4.01, GraphPad Prism®).\nThe reaction was incubated for 15 min at 37 °C and stopped with the addition of 10 μL 0.25% TFA to make up a total volume of 60 μL. The reactions were performed in triplicate and 50 μL injections were analysed via HPLC (Agilent Technologies) across a gradient of 0.1% TFA and 2% ACN in water to 0.1% TFA, 95% ACN. A calibration curve was set up to convert the product peak area to picomoles product formed, through the complete hydrolysis of the substrate with the N‐domain. […] Kinetic constants were calculated using the Michaelis–Menten method using […] […]\nThe assay is a modified form of the continuous assay 7 where the assay is set up on ice in triplicate in a 96‐well plate. The baseline fluorescence was at time zero and then the substrate was incubated at 37 °C and fluorescence read at the 45 min time point on a Cary Eclipse spectrofluorimeter (Varian Inc.) at λex = 320 nm and λem = 420 nm. Again, kinetic constants were calculated using the Michaelis–Menten method with […] […] The detected fluorescence was converted to picamoles product formed through the slope of a calibration curve of Abz‐Gly. […]\nas §1"}, "[8]": {"system": "ACE variants", "assay": "Cleavage‐site analysis by MALDI‐TOF MS, kinetic assay conditions", "type": "biochemical, human", "conditions": "MALDI‐TOF MS of products within kinetic assay conditions; Aβ(1–16): all ACE variants except Cdom; Aβ(4–10) peptides: Cdom and CC‐sACE not analysed", "method": "The mass spectrometry was analysed at the Centre for Proteomic and Genomic Research (Cape Town, South Africa). Briefly, the collected peptides were spotted onto a 10 mg·mL^−1 α‐cyano‐4‐hydroxycinnamic acid matrix (Fluka, USA) in 80% ACN, 0.2% TFA for a final concentration of 5 mg·mL^−1 matrix in 40% ACN, 0.1% TFA, 10 mM NH4H2PO4. Mass spectrometry was performed with a 4800 MALDI‐TOF/TOF (Applied Biosytems) with all spectra recorded in positive reflector mode. Spectra were generated with 400 laser shots/spectrum at a laser intensity of 3800 (arbitrary units) with a grid voltage of 16 kV."}, "[9]": {"conditions": "fluorescence λex 320 nm, λem 420 nm, Hepes pH 7.5 buffer as for Aβ(4–10)Q, 5 min time point, enzyme 0.226 pmol, mean ± SEM, n = 3"}, "[10]": {"conditions": "mean ± fractional error of the ratio"}, "[11]": {"conditions": "fluorescence λex 320 nm, λem 420 nm, Hepes pH 7.5 buffer as for Aβ(4–10)Q, 5 min time point, enzyme 0.228 pmol, mean ± SEM, n = 3"}}, "note": "Where “and” joins values, the source holds several entries; their conditions need not be identical. Equal entries are not always repeated. Entries after “also recorded” stand apart in the source; their conditions may differ.", "data": [{"substance": "Abz‐FRHDSG‐(NT) [Aβ(4–10)Y, fluorogenic Aβ(4–10) peptide with NT quencher substituting for Tyr]", "values": [{"measurement": "cooperativity between the two C‐domains of CC‐sACE", "setting": "[1]", "value": "no cooperativity; also recorded: an additive effect between the two C‐domains"}, {"measurement": "C‐sACE K m, fold larger than its active N‐domain counterpart", "setting": "[2]; C‐sACE versus active N‐domain counterpart, P < 0.05", "value": 2, "unit": "fold"}, {"measurement": "K m", "setting": "[2]; [9]", "value": "38.10 ± 0.10", "unit": "µM"}, {"measurement": "V max", "setting": "[2]; [9]", "value": "1.57 ± 0.09"}, {"measurement": "k cat", "setting": "[2]; [9]", "value": "6.95 ± 1.39", "unit": "s⁻¹"}, {"measurement": "k cat/K m", "setting": "[2]; fluorescence λex 320 nm, λem 420 nm, Hepes pH 7.5 buffer as for Aβ(4–10)Q, 5 min time point, enzyme 0.226 pmol, mean ± fractional error of the ratio, n = 3", "value": "1.83 ± 0.18", "unit": "M^−1·s^−1 × 10^5"}, {"measurement": "K m", "setting": "[3]; mean ± SEM", "value": "20.30 ± 2.55", "unit": "µM"}, {"measurement": "V max", "setting": "[3]; mean ± SEM", "value": "0.90 ± 0.08"}, {"measurement": "k cat", "setting": "[3]; mean ± SEM", "value": "12.70 ± 1.16", "unit": "s⁻¹"}, {"measurement": "k cat/K m", "setting": "[3]; [10]", "value": "6.33 ± 0.98", "unit": "M^−1·s^−1 × 10^5"}, {"measurement": "K m", "setting": "[4]; mean ± SEM", "value": "8.56 ± 0.83", "unit": "µM"}, {"measurement": "V max", "setting": "[4]; mean ± SEM", "value": "0.44 ± 0.01"}, {"measurement": "k cat", "setting": "[4]; mean ± SEM", "value": "3.87 ± 0.09", "unit": "s⁻¹"}, {"measurement": "k cat/K m", "setting": "[4]; [10]", "value": "4.61 ± 0.46", "unit": "M^−1·s^−1 × 10^5"}, {"measurement": "K m", "setting": "[5]; mean ± SEM", "value": "27.23 ± 9.52", "unit": "µM"}, {"measurement": "V max", "setting": "[5]; mean ± SEM", "value": "4.45 ± 0.63"}, {"measurement": "k cat", "setting": "[5]; mean ± SEM", "value": "5.33 ± 0.76", "unit": "s⁻¹"}, {"measurement": "k cat/K m", "setting": "[5]; [10]", "value": "2.30 ± 0.87", "unit": "M^−1·s^−1 × 10^5"}, {"measurement": "catalytic efficiency by Ndom relative to Aβ(1–16)", "setting": "[6]; […] 10^5 versus […] 10^5 M^−1·s^−1", "value": "half the catalytic efficiency"}, {"measurement": "K m", "setting": "[6]; [11]", "value": "21.20 ± 0.31", "unit": "µM"}, {"measurement": "V max", "setting": "[6]; [11]", "value": "4.62 ± 0.14"}, {"measurement": "k cat", "setting": "[6]; [11]", "value": "20.30 ± 0.62", "unit": "s⁻¹"}, {"measurement": "k cat/K m", "setting": "[6]; fluorescence λex 320 nm, λem 420 nm, Hepes pH 7.5 buffer as for Aβ(4–10)Q, 5 min time point, enzyme 0.228 pmol, mean ± fractional error of the ratio, n = 3", "value": "9.57 M^−1·s^−1 × 10^5 and 9.57 ± 0.33 M^−1·s^−1 × 10^5"}, {"measurement": "interdomain cooperativity, full‐length constructs", "setting": "[7]; examination of the N‐sACE and C‐sACE constructs", "value": "positive domain cooperativity; also recorded: a positive form of cooperativity"}, {"measurement": "interdomain cooperativity, truncated domains taken into account", "setting": "[7]; truncated domains versus sACE", "value": "a negative effect on the activity of sACE"}, {"measurement": "cleavage site (bond)", "setting": "[8]", "value": "Asp7‐Ser8"}]}]}
